ChEMBL document CHEMBL5257126, “Moderately lipophilic 2-(Het)aryl-6-dithioacetals, 2-phenyl-1,4-benzodioxane-6-dithioacetals and 2-phenylbenzofuran-5-dithioacetals: Synthesis and primary evaluation as potential antidiabetic AMPK-activators” (Bioorg Med Chem, 2023)

What was measured:
L6 [1] = experiment: Induction of glucose uptake in rat L6 cells assessed as fold increase by measuring 2-NBDG uptake at 25 uM preincubated in high glucose medium for 48 hrs followed by compound addition and measured after 24 hrs; format: functional
L6 [2] = experiment: Induction of glucose uptake in rat L6 cells assessed as fold increase by measuring 2-NBDG uptake at 0.25 uM preincubated in high glucose medium for 48 hrs followed by compound addition and measured after 24 hrs; format: functional
L6 [3] = experiment: Induction of glucose uptake in rat L6 cells assessed as fold increase by measuring 2-NBDG uptake at 2.5 uM preincubated in high glucose medium for 48 hrs followed by compound addition and measured after 24 hrs; format: functional
[4] = molecular target: T1, Serine/threonine-protein kinase STK11 (Rattus norvegicus) (UniProt D4AE59); experiment: Activation of LKB1 in rat L6 cells assessed as fold increase in phosphorylation at Ser428 at 10 uM incubated for 24 hrs by Western blot analysis; format: cell-based
T1 sequence (whole entry): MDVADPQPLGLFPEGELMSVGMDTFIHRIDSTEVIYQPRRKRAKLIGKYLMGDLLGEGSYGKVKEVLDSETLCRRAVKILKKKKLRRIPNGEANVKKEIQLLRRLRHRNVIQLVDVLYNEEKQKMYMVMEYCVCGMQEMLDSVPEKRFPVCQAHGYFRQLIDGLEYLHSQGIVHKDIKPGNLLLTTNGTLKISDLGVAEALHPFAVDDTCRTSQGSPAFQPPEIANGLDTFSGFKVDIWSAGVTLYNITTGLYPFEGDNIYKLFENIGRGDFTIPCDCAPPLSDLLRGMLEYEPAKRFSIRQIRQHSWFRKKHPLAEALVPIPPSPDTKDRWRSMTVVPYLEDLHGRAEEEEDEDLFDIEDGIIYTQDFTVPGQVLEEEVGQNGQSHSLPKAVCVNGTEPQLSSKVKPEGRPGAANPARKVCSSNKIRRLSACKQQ

[5] = molecular target: T1, Serine/threonine-protein kinase STK11 (Rattus norvegicus); experiment: Activation of LKB1 in rat L6 cells assessed as fold increase in phosphorylation at Ser428 at 25 uM incubated for 24 hrs by Western blot analysis; format: cell-based; conditions: filed as activator

SMILES	fold change (FC) (L6 [1])	fold change (FC) (L6 [2])	fold change (FC) (L6 [3])	Activity [4] [%]	Activity [5] [%]
COc1cccc(C2CCc3cc(C4SCCCS4)ccc3O2)c1 (configuration not stated)	1.5	1	1	–	–
c1ccc(C2COc3cc(C4SCCCS4)ccc3O2)cc1 (configuration not stated)	1.2	1	1	–	–
OCCSC(SCCO)c1ccc2c(c1)OCC(c1ccccc1)O2 (configuration not stated)	1.7	1.1	1.2	–	–
c1ccc(-c2cc3cc(C4SCCCCS4)ccc3o2)cc1	1.1	1	1	–	–
c1ccc(C2CCc3cc(C4SCCCCS4)ccc3O2)cc1 (configuration not stated)	–	–	–	30	80
c1ccc(C2CCc3cc(C4NCCS4)ccc3O2)cc1 (configuration not stated)	1.2	1	0.9	–	–
c1ccc(C2COc3cc(C4SCCCCS4)ccc3O2)cc1 (configuration not stated)	1.1	1	1	–	–
CC(C)(C)OC(=O)NCCSC(SCCNC(=O)OC(C)(C)C)c1ccc2c(c1)CCC(c1ccccc1)O2 (configuration not stated)	1	1	1	–	–
O[C@H]1CS[C@@H](c2ccc3c(c2)CCC(c2ccccc2)O3)SC1 (some centres not stated)	1	1.1	1	–	–
c1coc(C2CCc3cc(C4SCCCS4)ccc3O2)c1 (configuration not stated)	1.2	1	1	–	–
OCCSC(SCCO)c1ccc2c(c1)CCC(c1ccco1)O2 (configuration not stated)	1.5	1.1	1	–	–
